Experiments:
[1] = target: T1, DR6 extracellular domain-FC chimera (Homo sapiens, UniProt O75509); experiment: ELISA binding of biotinylated angiocidin to plate-coated DR6 extracellular-Fc chimeric recombinant protein; details: 1 μg/ml biotinylated angiocidin; 50 μg/ml 5 mer, 10 μg/ml anti-DR6 IgG or 50 μg/ml unlabeled angiocidin
T1 construct: wells of a microtiter plate were coated with 100 ng of a DR6 extracellular-Fc chimeric recombinant protein overnight
T1 sequence (O75509 42-349 limits assumed): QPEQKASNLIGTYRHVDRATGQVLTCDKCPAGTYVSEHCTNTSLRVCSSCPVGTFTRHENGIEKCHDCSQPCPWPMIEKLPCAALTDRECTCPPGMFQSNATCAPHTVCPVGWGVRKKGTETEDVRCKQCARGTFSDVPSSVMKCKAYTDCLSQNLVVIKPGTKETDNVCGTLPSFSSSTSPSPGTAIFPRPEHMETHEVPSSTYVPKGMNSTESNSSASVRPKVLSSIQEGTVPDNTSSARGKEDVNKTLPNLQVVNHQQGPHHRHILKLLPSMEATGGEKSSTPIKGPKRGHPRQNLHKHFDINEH
Experimental: The next experiment was performed to characterize the binding of DR6 with angiocidin. Briefly, wells of a microtiter plate were coated with 100 ng of a DR6 extracellular-Fc chimeric recombinant protein overnight. Wells were then washed in PBS and blocked with 1% BSA. Blocked wells were incubated with shaking with 200 μl of PBS containing various concentrations of biotinylated angiocidin for one hour. Wells were than washed and incubated with shaking with a 1:10,000 dilution of a 1 mg/ml solution of streptavidin-HRP in PBS. Wells were washed 3 times in PBS and bound streptavidin HRP was detected by incubation of the wells with 100 μl of 3,3′,5,5′-tetramethylbenzidine (TMB) with shaking for 5 min. Reactions were stopped by the addition of 50 μl of 1 M HCl and the color read in an ELISA reader at 450 nm.
The next experiment was performed to further characterize the binding between DR6 and angiocidin. It was observed that the binding of angiocidin to DR6 was blocked with anti-DR6 IgG, 5 mer peptide, and unlabeled angiocidin. Wells contained either 1 μg/ml of biotinylated angiocidin alone or 50 μg/ml 5 mer, 10 μg/ml of anti-DR6 IgG or 50 μg/ml unlabeled angiocidin.

THP-1 cells [2] = experiment: Differentiation marker expression (CD14, CD54, CD36) in THP-1 cells, flow cytometry; assay type: cell-based; details: for Leukemia cell differentiating activity, comparison of 5 mer, 20 mer and angiocidin / Upregulation of CD54 in THP-1 leukemia cells: FIGS. 8-11
Experimental: FIG. 10 is an image showing the comparison between angiocidin, the 5 mer, and a 20 mer (F86-H105) […]; SEQ ID NO: 2 on the expression of CD14 and CD54. Briefly, THP-1 cells were grown in the presence of various concentrations of peptide overnight and then the cells were assayed by flow cytometry for expression of CD14 and CD54.
FIG. 11 is an image showing the comparison between the 20 mer, 5 mer and angiocidin on the expression of CD14 and CD54 up-regulation in THP-1 cells and two primary leukemia cells. Cells were treated with peptide at 10 ug/ml for 12 hours and CD14 and CD54 were measured by flow cytometry.
THP-1 cells were cultured in RPMI media for 24 hours containing no peptides or angiocidin or 2, 10 μg/ml of either angiocidin, 5 mer, peptide or a control peptide, r5 mer having the reverse sequence of the 5 mer. Marker expression was measured by flow cytometry.

[3] = system: three different leukemia cell lines; experiment: Cytokine upregulation in three leukemia cell lines; assay type: cell-based
Experimental: Experiments were also performed comparing the leukemia cell differentiating activity of the 5 mer, the 20 mer and angiocidin.

THP-1 cells [4] = experiment: Binding of Alexa Fluor 488 labeled angiocidin to THP-1 cells, flow cytometry; details: inferred from competition by unlabeled angiocidin
Experimental: Experiments were performed to evaluate the interaction between DR-6 and angiocidin. […] Briefly, THP-1 cells were plated in 6 well dishes in serum-free media. Cells were untreated or treated for 30 min at 37° with either 2.5 μg/ml of Angiocidin labeled with Alexa Fluor 488 (Angio-488), Angio-448+10 μg/ml control rabbit IgG, Angio-488+10 μg/ml rabbit Anti-DR6 IgG, Angio-488+10 μg/ml unlabeled Angiocidin. Cells were washed twice in PBS and the percent positive Angio-488 measured by flow cytometry.

Substance | Blocking of binding of biotinylated angiocidin to DR6 [1] | Leukemia cell differentiating activity, comparison of 5 mer, 20 mer and angiocidin (THP-1 cells [2]) | Upregulation of CD54 in THP-1 leukemia cells (THP-1 cells [2]) | Differentiation activity measured by upregulation of CD14, CD54, CD36 (THP-1 cells [2]; THP-1 cells, RPMI, 24 hours, 2, 10 μg/ml) | Upregulation of CD54 in THP-1 cells (THP-1 cells [2]; after 24 hours incubation, FIG. 8) | Upregulation of cytokine panel [3] | Affinity for cell bound DR6 after labeling with Alexa Fluor 488 (THP-1 cells [4])
ALKHR [5 mer] | blocked | nearly identical leukemia cell differentiating activities | upregulate CD54 | mimics the differentiation activity of angiocidin | upregulate CD54 | upregulate a similar panel of cytokines | 
FCTGIRVAHLALKHRQGKNH [20 mer, 20 mer peptide of the anti-tumor domain of angiocidin] |  | nearly identical leukemia cell differentiating activities | upregulate CD54 |  |  | upregulate a similar panel of cytokines | 
Angio-488: Angiocidin labeled with Alexa Fluor 488 [reference compound] |  |  |  |  |  |  | did not alter its affinity for cell bound DR6

Source: patent US20170174734A1, “DR6 Receptor Mediates the Leukemia Differentiation Activity of Angiocidin: A Potent Anti-Tumor Peptide” (Temple University-Of The Commonwealth System of Higher …, priority 2014, published 2017)
